This experiment concerns the target MAGE-A11:PCF11 (Homo sapiens (Human), UniProt P43364). In words: TR-FRET single point screening at 15 μM. It is filed as binding. Set-up: unit not given here. The text has this:
TR-FRET Assays and High-throughput Screen. Terbium-anti-GST antibody, 1 M Tris pH 7.5 1 M MgCl2 and 1 M DTT were purchased from Invitrogen (Carlsbad, CA), BSA was purchased from Sigma (St. Louis, MO). Dimethyl sulfoxide (DMSO) was purchased from Fisher Scientific (Pittsburgh, PA). Black 384-well low volume plates and 384-well polypropylene compound plates were purchased from Corning Incorporated (Tewksbury, MA). The St. Jude FDA drug and Bioactive library (11,293 chemicals), Drug-like library (10,073 chemicals) and Lead-like library (10,041 chemicals) were custom assembled and purchased from commercial sources including Sigma, Microsource (Gaylordsville, CT), selleckchem (Houston, TX), ChemDiv (San Diego, CA), ChemBridge (San Diego, CA), Enamine (Monmouth Jct., NJ), and Life Chemicals (Niagara-on-the-Lake, ON, Canada). They were arrayed (10 mM in DMSO) in 384-well polypropylene compound plates with columns 1, 2, 13 and 14 empty which were reserved for controls.
The TR-FRET assay buffer with a formula of 50 mM Tris pH 7.5, 20 mM MgCl2, 0.1 mg/ml BSA and 1 mM DTT was freshly prepared before each experiment. All TR-FRET assays were performed in black 384-well plates with 20 μl/well assay volume in the TR-FRET assay buffer at room temperature (approximately 25° C.). All peptides or compounds were solubilized in DMSO. To test the competitive activity of peptides or compounds against the interaction between GST-MAGEA11 MHD and FAM-PCF11_4 peptide, 10 μl/well peptide or compound at specified concentration was dispensed into a black 384-well low volume plate, followed by 5 μl/well FAM-PCF11_4 (800 nM), 5 μl/well Tb-anti-GST (20 nM) and GST-MAGEA11 MHD (20 nM). The assay components in each well was then mixed by shaking the plate on an IKA MTS 2/4 digital microtiter plate shaker (IKA Works; Wilmington, NC, USA) at 900 RPM for 1 minute. The plate was further centrifuged in an Eppendorf 5810 centrifuge with an A-4-62 swing-bucket rotor (Eppendorf AG, Hamburg, Germany) at 201 g (1000 rpm) for 30 seconds. The plate was then incubated for 90 min with a lid to avoid light exposure to the assay components. After incubation, the fluorescent emission signals at 520 nm and 490 nm channels of individual wells were measured with a PHERAstar FS plate reader (BMG Labtech; Durham, NC, USA) by using a 340 nm excitation filter, 100 μs delay time, and 200 μs integration time. The TR-FRET fluorescence emission ratio (TR-FRET signal) for each well was presented as 10 000×520 nm/490 nm, which was used directly for curve fitting, or further converted to % Inhibition based on the respective positive and negative controls. The graphic software GraphPad Prism 4.81 (GraphPad Software; La Jolla, CA, USA) was used to generate curves and derive IC50 values of tested peptides or compounds, if applicable.
TR-FRET screen for identifying MAGEA11 small molecule inhibitors was performed as follows. The primary one-concentration screening and subsequent 10 or 20-concentration dose response tests were accomplished with an automated High Throughput Screening system (HighRes Biosolutions, Beverly, MA)^30. In the primary screening, 15 μl/well FAM-PCF11_4 (267 nM) was first dispensed with a Multidrop Combi Reagent Dispenser (Thermo Fisher Scientific, Waltham, MA) to black 384-well low volume assay plates. The plates were spun down with a Velocity11 VSpin microplate centrifuge (Agilent Technologies, Santa Clara, CA). 30 nl/well of 10 mM compound/DMSO solutions, or DMSO alone, were transferred from compound plates (the St. Jude FDA drug and bioactive library, Drug-like library and Lead-like library) or a control plate to the assay plates with a Pin Tool (V&P Scientific, San Diego, CA). The compounds were arrayed in columns 3 to 12 and columns 15 to 24 of compound plates. The controls were arrayed in columns 1, 2, 13 and 14 of a compound plate. […]
(In general: Time-resolved FRET reads energy transfer from a long-lived donor to a nearby acceptor.)

[1] abbreviates: single point TR-FRET screening of quinoline compounds against MAGE-A11:PCF11, 15 μM.
[2] abbreviates: single point TR-FRET screening at 15 μM against MAGE-A11:PCF11.

From patent US20240246941A1, “SUBSTITUTED 4-(3-AMINOPROP-1-YL)AMINOQUINOLINE ANALOGS AS MODULATORS OF MELANOMA-ASSOCIATED ANTIGEN 11 UBIQUITIN LIGASE” (ST. JUDE CHILDREN'S RESEARCH HOSPITAL, INC., priority 2020, published 2024) come the findings set out here.

MAGE-A11:PCF11, sequence (P43364 218-429): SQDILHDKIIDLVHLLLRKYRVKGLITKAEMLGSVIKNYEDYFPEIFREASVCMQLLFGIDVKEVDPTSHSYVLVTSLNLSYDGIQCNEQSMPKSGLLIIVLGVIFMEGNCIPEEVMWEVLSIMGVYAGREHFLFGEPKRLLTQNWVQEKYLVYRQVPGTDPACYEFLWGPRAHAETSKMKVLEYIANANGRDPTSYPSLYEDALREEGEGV

On to `Clc1ccc2c(NCCCNCc3ccco3)ccnc2c1` [SJ000000502], for which the TR-FRET signal under setting [1] worked out at 6.349.

As to `CN(C)CCNc1c2c(nc3ccccc13)CCC2` [SJ000013622], the TR-FRET signal under setting [2] stood at 3.285.

With `O=C(O)CCCNC(=O)CNc1c2ccccc2nc2ccccc12` [SJ000016432], the TR-FRET signal under setting [2] worked out at 9.598.

Consider `CC(Nc1c2ccccc2nc2ccccc12)C(=O)NC(CC(N)=O)C(=O)O` (stereo not drawn) [SJ000016433], for which, under setting [2], the TR-FRET signal is 22.71.

As for `CCOC(=O)c1cnc2c(ccc3ccccc32)c1NCCN(C)C` [SJ000019487], the TR-FRET signal under setting [2] was 6.418.

As to `CCN(CC)CC(=O)Nc1c2c(nc3ccccc13)CCCC2` [SJ000019523], the TR-FRET signal under setting [2] was determined as 2.741.

`CCOC(=O)c1cnc2c(C)cc(Cl)cc2c1NCCN(C)C` [SJ000027210] gave a TR-FRET signal under setting [2] of 3.834.

`CCOC(=O)c1cnc2c(Cl)c(Cl)ccc2c1NCCN(C)C` [SJ000027266] gave a TR-FRET signal under setting [2] of 2.575.

Compound `CCOC(=O)c1cnc2ccc(C)cc2c1NCCN1CCOCC1` [SJ000027268] returned a TR-FRET signal under setting [2] of −0.3915.

Take `CCOC(=O)c1cnc2ccc(OCC)cc2c1NCCN(C)C` [SJ000027288]: the TR-FRET signal under setting [2] came out at 10.66.

With `CCOC(=O)c1cnc2ccc(OCC)cc2c1NCCN1CCOCC1` [SJ000027289], the TR-FRET signal under setting [2] is given as 5.291.

For the compound `CN(C)CCCNc1c2c(nc3ccccc13)CCC2` [SJ000029259], the TR-FRET signal under setting [1] is given as 24.05.

In the case of `CCOC(=O)c1cnc2ccc(Br)cc2c1NCCN1CCOCC1` [SJ000031339], under setting [2], the TR-FRET signal is −47.24.

With `CCOC(=O)c1ccc2ncc(C(=O)OCC)c(NCCN3CCOCC3)c2c1` [SJ000031347], under setting [2], the TR-FRET signal came to 0.6542.

For the compound `CCOC(=O)c1cnc2c(C)c(Cl)ccc2c1NCCN(C)C` [SJ000037393], the TR-FRET signal under setting [2] is listed as −1.333.

Consider `CCOC(=O)c1cnc2c(C)cc(C)cc2c1NCCN(C)C` [SJ000037396], for which the TR-FRET signal under setting [2] is listed as 4.92.

Regarding `CCOC(=O)c1cnc2c(C)cc(C)cc2c1NCCCN(C)C` [SJ000037397], the TR-FRET signal under setting [1] is reported as 14.93.

For `CN(C)CCCNc1c2ccccc2nc2ccccc12` [SJ000044378], the TR-FRET signal under setting [1] stood at 16.77.

For the compound `NC(=O)CC(Nc1c2ccccc2nc2ccccc12)C(=O)O` (stereo not drawn) [SJ000044383], the TR-FRET signal under setting [1] is on record as 20.1.

The compound `CCc1nc2ccccc2c(NC(=O)CNC(C)(C)CC(C)(C)C)c1C` [SJ000049110] returned a TR-FRET signal under setting [2] of −0.6045.

`CCN(CC)CC(=O)Nc1c2c(nc3ccccc13)CCC2` [SJ000049655] came in with a TR-FRET signal under setting [2] of 0.6542.

In the case of `Cc1ccc2ncc(S(=O)(=O)c3ccccc3)c(N3CCN(C)CC3)c2c1` [SJ000083945], the TR-FRET signal under setting [2] was −8.419.

Under setting [2], `CCc1ccc2ncc(S(=O)(=O)c3ccccc3)c(N3CCN(C)CC3)c2c1` [SJ000083946] showed a TR-FRET signal of −6.249.

`COc1ccc2ncc(S(=O)(=O)c3ccccc3)c(N3CCN(C)CC3)c2c1` [SJ000083947] displayed a TR-FRET signal under setting [2] of −2.094.

Compound `CCOc1ccc2ncc(S(=O)(=O)c3ccccc3)c(N3CCN(C)CC3)c2c1` [SJ000083948] had a TR-FRET signal under setting [2] of −3.938.

`CN1CCN(c2c(S(=O)(=O)c3ccccc3)cnc3ccc(F)cc23)CC1` [SJ000083949]: the TR-FRET signal under setting [2] is listed as −11.5.

As for `CN1CCN(c2c(S(=O)(=O)c3ccccc3)cnc3ccc(Cl)cc23)CC1` [SJ000083950], under setting [2], the TR-FRET signal is −5.374.

`COc1cc2ncc(S(=O)(=O)c3ccc(C)cc3)c(N3CCN(C)CC3)c2cc1OC` [SJ000083951]: the TR-FRET signal under setting [2] turned out to be 1.313.

In turn, `COc1ccc2ncc(S(=O)(=O)c3ccc(Cl)cc3)c(N3CCN(C)CC3)c2c1` [SJ000083952] registered a TR-FRET signal under setting [2] of −3.658.

`COc1cc2ncc(S(=O)(=O)c3ccc(Cl)cc3)c(N3CCN(C)CC3)c2cc1OC` [SJ000083953] yielded a TR-FRET signal under setting [2] of 4.674.

For `CCc1ccc2ncc(S(=O)(=O)c3ccc(OC)cc3)c(N3CCN(C)CC3)c2c1` [SJ000083954], the TR-FRET signal under setting [2] is given as −5.969.

`COc1ccc(S(=O)(=O)c2cnc3cc(OC)c(OC)cc3c2N2CCN(C)CC2)cc1` [SJ000083955] came in with a TR-FRET signal under setting [2] of 0.8227.

Take `CCN1CCN(c2c(S(=O)(=O)c3ccccc3)cnc3ccc(C)cc23)CC1` [SJ000083956]: the TR-FRET signal under setting [2] is reported as −3.448.

Consider `CCc1ccc2ncc(S(=O)(=O)c3ccccc3)c(N3CCN(CC)CC3)c2c1` [SJ000083957], for which, under setting [2], the TR-FRET signal is 3.238.

The compound `CCN1CCN(c2c(S(=O)(=O)c3ccccc3)cnc3ccc(OC)cc23)CC1` [SJ000083958] had a TR-FRET signal under setting [2] of 0.1242.

Regarding `CCOc1ccc2ncc(S(=O)(=O)c3ccccc3)c(N3CCN(CC)CC3)c2c1` [SJ000083959], under setting [2], the TR-FRET signal worked out at 4.534.

`CCN1CCN(c2c(S(=O)(=O)c3ccccc3)cnc3ccc(Cl)cc23)CC1` [SJ000083960] displayed a TR-FRET signal under setting [2] of 4.43.

In turn, `CCN1CCN(c2c(S(=O)(=O)c3ccc(C)cc3)cnc3ccc(C)cc23)CC1` [SJ000083961] gave a TR-FRET signal under setting [2] of 0.2213.

As to `CCc1ccc2ncc(S(=O)(=O)c3ccc(C)cc3)c(N3CCN(CC)CC3)c2c1` [SJ000083962], the TR-FRET signal under setting [2] amounted to 2.377.

Under setting [2], `CCN1CCN(c2c(S(=O)(=O)c3ccc(C)cc3)cnc3ccc(OC)cc23)CC1` [SJ000083963] yielded a TR-FRET signal of −3.917.

The compound `CCOc1ccc2ncc(S(=O)(=O)c3ccc(C)cc3)c(N3CCN(CC)CC3)c2c1` [SJ000083964] gave a TR-FRET signal under setting [2] of −5.899.

Regarding `CCN1CCN(c2c(S(=O)(=O)c3ccc(C)cc3)cnc3cc(OC)c(OC)cc23)CC1` [SJ000083965], under setting [2], the TR-FRET signal is listed as 7.146.

For the compound `CCN1CCN(c2c(S(=O)(=O)c3ccc(C)cc3)cnc3ccc(Cl)cc23)CC1` [SJ000083966], under setting [2], the TR-FRET signal is −4.358.

Regarding `CCN1CCN(c2c(S(=O)(=O)c3ccc(Cl)cc3)cnc3ccc(C)cc23)CC1` [SJ000083967], under setting [2], the TR-FRET signal is −3.098.

In the case of `CCc1ccc2ncc(S(=O)(=O)c3ccc(Cl)cc3)c(N3CCN(CC)CC3)c2c1` [SJ000083968], under setting [2], the TR-FRET signal is listed as −19.13.

Turning to `CCOc1ccc2ncc(S(=O)(=O)c3ccc(Cl)cc3)c(N3CCN(CC)CC3)c2c1` [SJ000083969], the TR-FRET signal under setting [2] is given as −4.989.

For the compound `CCN1CCN(c2c(S(=O)(=O)c3ccc(Cl)cc3)cnc3cc(OC)c(OC)cc23)CC1` [SJ000083970], under setting [2], the TR-FRET signal is −6.809.

Under setting [2], `CCOc1ccc2ncc(S(=O)(=O)c3ccc(OC)cc3)c(N3CCN(CC)CC3)c2c1` [SJ000083971] had a TR-FRET signal of −6.389.

Consider `CCN1CCN(c2c(S(=O)(=O)c3ccc(OC)cc3)cnc3cc(OC)c(OC)cc23)CC1` [SJ000083972], for which, under setting [2], the TR-FRET signal is 7.411.

Under setting [2], `Cc1ccc2ncc(S(=O)(=O)c3ccccc3)c(N3CCN(c4ccccc4)CC3)c2c1` [SJ000083973] registered a TR-FRET signal of −29.7.

The compound `COc1ccc2ncc(S(=O)(=O)c3ccccc3)c(N3CCN(c4ccccc4)CC3)c2c1` [SJ000083974] showed a TR-FRET signal under setting [2] of −133.

Under setting [2], `CCOc1ccc2ncc(S(=O)(=O)c3ccccc3)c(N3CCN(c4ccccc4)CC3)c2c1` [SJ000083975] registered a TR-FRET signal of −12.06.

Compound `O=S(=O)(c1ccccc1)c1cnc2ccc(F)cc2c1N1CCN(c2ccccc2)CC1` [SJ000083976] gave a TR-FRET signal under setting [2] of −31.1.

On to `O=S(=O)(c1ccccc1)c1cnc2ccc(Cl)cc2c1N1CCN(c2ccccc2)CC1` [SJ000083977], for which the TR-FRET signal under setting [2] is listed as −15.7.
